# In ChEMBL document CHEMBL4118176, “N-aryl-piperidine-4-carboxamides as a novel class of potent inhibitors of MALT1 proteolytic activity” (Bioorg Med Chem Lett, 2018):
# pEC50, pIC50: −log10 of the molar value.
# Key:
# [1] = molecular target: T1, Mucosa-associated lymphoid tissue lymphoma translocation protein 1 (Homo sapiens, UniProt Q9UDY8); experiment: Inhibition of MALT1 in human OCI-LY3 cells assessed a decrease in BCL10 cleavage after 24 hrs by ELISA; type: cell-based
# T1 sequence (Q9UDY8 whole entry): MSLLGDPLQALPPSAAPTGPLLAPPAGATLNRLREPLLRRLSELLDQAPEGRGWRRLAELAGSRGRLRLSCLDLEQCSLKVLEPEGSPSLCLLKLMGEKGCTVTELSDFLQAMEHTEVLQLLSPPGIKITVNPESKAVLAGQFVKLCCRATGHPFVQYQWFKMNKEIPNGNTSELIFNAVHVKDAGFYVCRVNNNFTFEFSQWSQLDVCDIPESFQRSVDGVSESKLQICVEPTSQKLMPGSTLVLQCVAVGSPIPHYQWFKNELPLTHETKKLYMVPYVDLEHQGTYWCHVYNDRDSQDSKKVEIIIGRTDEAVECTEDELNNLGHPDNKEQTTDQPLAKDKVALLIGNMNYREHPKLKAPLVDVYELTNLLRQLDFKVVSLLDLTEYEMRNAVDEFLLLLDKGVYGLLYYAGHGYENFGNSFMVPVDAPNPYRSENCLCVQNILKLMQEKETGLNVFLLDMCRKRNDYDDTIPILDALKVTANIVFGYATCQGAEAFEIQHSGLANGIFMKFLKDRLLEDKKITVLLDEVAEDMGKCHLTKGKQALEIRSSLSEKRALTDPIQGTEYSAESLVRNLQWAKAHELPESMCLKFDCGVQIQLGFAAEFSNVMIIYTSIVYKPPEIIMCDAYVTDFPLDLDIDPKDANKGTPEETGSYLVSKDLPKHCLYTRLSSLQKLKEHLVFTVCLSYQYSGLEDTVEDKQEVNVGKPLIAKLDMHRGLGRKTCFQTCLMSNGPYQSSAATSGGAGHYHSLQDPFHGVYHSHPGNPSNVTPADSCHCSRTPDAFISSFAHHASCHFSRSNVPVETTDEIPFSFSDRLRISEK
# [2] = molecular target: T1, Mucosa-associated lymphoid tissue lymphoma translocation protein 1; experiment: Inhibition of MALT1 (unknown origin) using Ac-Trp-Leu-Arg-Ser-Arg'Cys(PT14)-NH2 as substrate preincubated for 60 mins followed by substrate addition measured after 60 mins by fluorescence assay
# [3] = molecular target: Mucosa-associated lymphoid tissue lymphoma translocation protein 1 (Homo sapiens, UniProt Q9UDY8); experiment: Inhibition of cIAP2 fused MALT1 (unknown origin) expressed in HEK293 cells assessed as suppression of NF-kB activation after 24 hrs by luciferase reporter gene assay; type: cell-based
# [4] = Clearance in rat hepatocytes assessed per 10^6 cells; type: ADME, cell-based, Hepatocyte
# [5] = Oral bioavailability in rat at 3 mg/kg; type: ADME, organism-based; settings: in vivo
# [6] = Solubility of the compound in buffer at pH 4; type: physicochemical
# [7] = Solubility of the compound in buffer at pH 6.8; type: physicochemical
# [8] = Volume of distribution at steady state in rat at 1 mg/kg, iv or 3 mg/kg, po; type: ADME, organism-based; settings: in vivo, read-out: Vdss
# [9] = Clearance in rat at 1 mg/kg, iv or 3 mg/kg, po; type: ADME, organism-based; settings: in vivo
# [10] = Half life in rat at 1 mg/kg, iv or 3 mg/kg, po; type: ADME, organism-based; settings: in vivo
# [11] = Clearance in rat liver microsomes; type: ADME, microsome; settings: read-out: CLH
# [12] = AUC in rat at 1 mg/kg, iv; type: ADME, organism-based; settings: in vivo
# BJAB = experiment: Antiproliferative activity against human BJAB cells after 72 hrs by CellTiterGlo assay; type: functional, cell-based
# OCI-Ly3 = experiment: Antiproliferative activity against human OCI-LY3 cells after 72 hrs by CellTiterGlo assay; type: functional, cell-based; settings: OCI-Ly3, 72 h
# [13] = molecular target: T1, Mucosa-associated lymphoid tissue lymphoma translocation protein 1; experiment: Inhibition of MALT1 in PMA-stimulated human Jurkat T cells assessed as reduction in IL2 level pretreated for 30 mins followed by PMA-stimulation measured after 5.5 hr by bioluminescence assay; type: cell-based
# [14] = Apparent permeability from apical to basolateral side in human Caco2 cells; type: ADME, cell-based; settings: Caco-2
smiles,measurement,setting,value
O=C(Nc1ccc(F)c(Cl)c1)C1CCN(c2ncccn2)CC1,pEC50,[1],5.27
same,pIC50,[2],5.79
same,pIC50,[3],5.51
Cc1nc(C)n(-c2ccc(NC(=O)C3CCN(c4ncccc4[N+](=O)[O-])CC3)cc2Cl)n1,CLH,[4],4.1 µL/min/1e6 cells
same,bioavailability,[5],46%
same,solubility,[6],170 µM
same,solubility,[7],7 µM
same,Vd,[8],1.1 L/kg
same,clearance,[9],43 mL/min/kg
same,pIC50,[2],6.74
same,half-life,[10],30 min
same,pIC50,[3],6.19
same,CLint scaled,[11],29 mL/min/kg
same,AUC,[12],0.914 µM·h
O=C(Nc1ccccc1)C1CCN(c2ncccc2Cl)CC1,pIC50,[2],5.33
CC(C)CN1CCC(C(=O)Nc2ccc(F)c(Cl)c2)CC1,pIC50,[2],< 4.00
O=C(NC1CCCCC1)C1CCN(c2ncccc2Cl)CC1,pIC50,[2],< 4.00
O=C(Nc1ccc(F)c(Cl)c1)C1CCN(c2nccnc2Cl)CC1,pEC50,[1],6.40
same,pIC50,[2],7.00
same,pIC50,[3],6.54
COc1ncc(NC(=O)C2CCN(c3ncccc3Cl)CC2)cc1Cl,pEC50,[1],6.35
same,pIC50,[2],7.89
same,pIC50,[3],6.72
O=C(Nc1cccc(Cl)c1)C1CCN(c2ncccc2Cl)CC1,pEC50,[1],5.47
same,pIC50,[2],6.68
same,pIC50,[3],5.80
O=C(Nc1ccc(F)c(Cl)c1)C1CCN(c2ccccc2)CC1,pEC50,[1],5.04
same,pIC50,[2],6.09
same,pIC50,[3],5.49
Cc1ccc(NC(=O)C2CCN(c3ncccc3Cl)CC2)cc1Cl,CLH,[4],173 µL/min/1e6 cells
same,solubility,[6],< 4 µM
same,solubility,[7],< 4 µM
same,Vd,[8],21.4 L/kg
same,clearance,[9],320 mL/min/kg
same,pIC50,[2],7.27
same,half-life,[10],120 min
same,pIC50,[3],5.43
same,CLint scaled,[11],81 mL/min/kg
same,AUC,[12],0.143 µM·h
O=C(Nc1ccc(F)c(Cl)c1)C1CCN(c2ncccc2Cl)CC1,pEC50,[1],5.82
same,pIC50,[2],7.55
same,pIC50,[3],5.87
N#Cc1cccnc1N1CCC(C(=O)Nc2ccc(F)c(Cl)c2)CC1,pEC50,[1],5.68
same,pIC50,[2],6.38
same,pIC50,[3],5.57
O=C(Nc1cnc(-n2nccn2)c(Cl)c1)C1CCN(c2ncccc2Cl)CC1,pEC50,[1],6.64
same,pEC50,BJAB,< 5.00
same,pIC50,[2],8.40
same,pIC50,[3],7.05
same,pEC50,OCI-Ly3,5.85
same,pIC50,[13],7.30
Nc1cccnc1N1CCC(C(=O)Nc2cnc(-n3nccn3)c(Cl)c2)CC1,pEC50,[1],6.25
same,pEC50,BJAB,< 5.00
same,pIC50,[2],8.15
same,pIC50,[3],7.05
same,pEC50,OCI-Ly3,5.44
same,pIC50,[13],7.10
O=C(Nc1ccc(F)c(Cl)c1)C1CCN(c2ccccn2)CC1,pIC50,[2],5.72
Cc1cn(-c2cc(NC(=O)C3CCN(c4ncccc4Cl)CC3)cc(C(F)(F)F)c2)cn1,CLH,[4],18.8 µL/min/1e6 cells
same,bioavailability,[5],46%
same,solubility,[6],690 µM
same,solubility,[7],16 µM
same,Vd,[8],8.7 L/kg
same,clearance,[9],56 mL/min/kg
same,pIC50,[2],6.47
same,half-life,[10],144 min
same,pIC50,[3],5.52
same,CLint scaled,[11],60.2 mL/min/kg
same,Papp A→B,[14],7.2 ×10⁻⁶ cm/s
same,AUC,[12],0.623 µM·h
CNC(=O)c1ncn(-c2ccc(NC(=O)C3CCN(c4ncccc4Cl)CC3)cc2Cl)n1,CLH,[4],228 µL/min/1e6 cells
same,pEC50,[1],6.68
same,solubility,[6],8 µM
same,solubility,[7],< 4 µM
same,Vd,[8],7.5 L/kg
same,clearance,[9],282 mL/min/kg
same,pIC50,[2],7.68
same,half-life,[10],36 min
same,pIC50,[3],6.85
same,CLint scaled,[11],59.8 mL/min/kg
same,Papp A→B,[14],8.2 ×10⁻⁶ cm/s
same,AUC,[12],0.125 µM·h
O=C(Nc1ccc(F)c(Cl)c1)C1CCN(Cc2ccc(F)cc2)CC1,pIC50,[2],< 4.00
Nc1cccnc1N1CCC(C(=O)Nc2ccc(F)c(Cl)c2)CC1,pEC50,[1],6.27
same,pIC50,[2],7.00
same,pIC50,[3],6.38
N#Cc1ccnc(N2CCC(C(=O)Nc3ccc(F)c(Cl)c3)CC2)c1,pIC50,[2],5.05
Nc1cccnc1N1CCC(C(=O)Nc2ccc(-n3nccn3)c(Cl)c2)CC1,pEC50,[1],6.72
same,solubility,[6],48 µM
same,solubility,[7],< 4 µM
same,Vd,[8],4.1 L/kg
same,clearance,[9],259 mL/min/kg
same,pEC50,BJAB,< 5.00
same,pIC50,[2],7.46
same,half-life,[10],18 min
same,pIC50,[3],6.96
same,CLint scaled,[11],102 mL/min/kg
same,Papp A→B,[14],19.4 ×10⁻⁶ cm/s
same,pEC50,OCI-Ly3,5.70
same,AUC,[12],0.161 µM·h
